Legend:
[1] = test infusion, 500 μL to each motor cortex
[2] = tested on: release of neurotransmitters including acetylcholine, norepinephrine, and glutamate; conditions: in vivo; cited from earlier work

[Gd] [gadolinium]
motor cortical coverage [1]: satisfactory motor cortical coverage

Botulinum toxin type A
period of reversible inhibition of neurotransmitter release [2]: 2-6 months

— US12453784B2 (priority 2018, dated 2025)
